For 18 molecules, IC50 results are on record in patent US20250282794A1 (CURADEV PHARMA LTD, priority 2022, published 2025).

Structures are written as SMILES.

A word on the IC50: it is the point on the concentration scale where inhibition reaches its midpoint.

recombinant full length HPK-1 enzyme, sequence (Q92918 whole entry, species assumed): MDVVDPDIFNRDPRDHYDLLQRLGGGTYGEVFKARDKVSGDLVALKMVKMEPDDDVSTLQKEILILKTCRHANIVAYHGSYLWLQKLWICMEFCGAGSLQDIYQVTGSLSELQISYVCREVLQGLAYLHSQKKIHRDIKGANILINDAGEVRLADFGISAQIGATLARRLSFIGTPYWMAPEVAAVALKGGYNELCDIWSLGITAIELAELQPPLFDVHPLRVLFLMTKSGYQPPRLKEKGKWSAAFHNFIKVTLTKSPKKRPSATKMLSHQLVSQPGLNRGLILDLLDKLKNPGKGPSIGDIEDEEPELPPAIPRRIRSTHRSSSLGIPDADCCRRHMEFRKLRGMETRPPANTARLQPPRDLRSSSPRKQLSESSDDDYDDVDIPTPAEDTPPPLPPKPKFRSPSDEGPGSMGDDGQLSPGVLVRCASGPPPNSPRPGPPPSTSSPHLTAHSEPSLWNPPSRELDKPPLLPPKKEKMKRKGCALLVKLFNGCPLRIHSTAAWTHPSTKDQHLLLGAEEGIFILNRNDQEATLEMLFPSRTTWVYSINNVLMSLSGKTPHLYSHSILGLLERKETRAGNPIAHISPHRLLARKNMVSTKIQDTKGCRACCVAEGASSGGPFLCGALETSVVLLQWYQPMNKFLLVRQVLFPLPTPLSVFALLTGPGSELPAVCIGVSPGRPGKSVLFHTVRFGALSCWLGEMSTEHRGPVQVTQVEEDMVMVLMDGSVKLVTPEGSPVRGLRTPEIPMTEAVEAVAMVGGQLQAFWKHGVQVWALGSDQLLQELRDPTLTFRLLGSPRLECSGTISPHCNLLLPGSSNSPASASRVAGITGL

The assay addresses recombinant full length HPK-1 enzyme (Homo sapiens (Human), UniProt Q92918). As to the kind of experiment: HPK-1 biochemical enzyme assay (ADP-Glo kinase inhibition). The note with it: recombinant full length HPK-1 6.8 nM, 10 μM ATP, 12.5 μM MBP, 30 mins at 25° C. In a few lines:
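ADP-Glo readout of ADP formed after a 30 min, 25° C. reaction of 6.8 nM full-length HPK-1 with swine myelin basic protein (12.5 μM) and ATP (10 μM) in Tris pH 7.4 buffer with MgCl2, DTT and BSA. Ten compound concentrations tested; percent inhibition set against vehicle (0%) and no-enzyme (100%) controls gave IC50.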
Consider `Cc1c(Nc2cc[nH]c(=O)c2C(=O)Nc2ccc(N3CCN(c4ncn(C)n4)CC3)cc2)cnc2c1NCCO2` [Example 339, N-(4-(4-(1-methyl-1H-1,2,4-triazol-3-yl)piperazin-1-yl)phenyl)-4-((8-methyl-2,3-dihydro-1H-pyrido[2,3-b][1,4]oxazin-7-yl)amino)-2-oxo-1,2-dihydropyridine-3-carboxamide], for which the half-maximal inhibitory concentration (IC50) is at most 10 nM. As to `Cc1cc(N2CCN(c3ccc(NC(=O)c4c(Nc5cnc6c(c5C)NCCO6)cc[nH]c4=O)cc3)CC2)ccn1` [Example 340, 4-((8-methyl-2,3-dihydro-1H-pyrido[2,3-b][1,4]oxazin-7-yl)amino)-N-(4-(4-(2-methylpyridin-4-yl)piperazin-1-yl)phenyl)-2-oxo-1,2-dihydropyridine-3-carboxamide], the IC50 was at most 10 nM. Then `Cc1c(Nc2cc[nH]c(=O)c2C(=O)Nc2ccc(N3CCN(C(=O)C(C)(C)C)CC3)cc2)cnc2c1NCCO2` [Example 341, 4-((8-methyl-2,3-dihydro-1H-pyrido[2,3-b][1,4]oxazin-7-yl)amino)-2-oxo-N-(4-(4-pivaloylpiperazin-1-yl)phenyl)-1,2-dihydropyridine-3-carboxamide], with at most 10 nM; and `Cc1c(Nc2cc[nH]c(=O)c2C(=O)Nc2ccc(N3CCN(C(=O)C(C)(C)F)CC3)cc2)cnc2c1NCCO2` [Example 342, N-(4-(4-(2-fluoro-2-methylpropanoyl)piperazin-1-yl)phenyl)-4-((8-methyl-2,3-dihydro-1H-pyrido[2,3-b][1,4]oxazin-7-yl)amino)-2-oxo-1,2-dihydropyridine-3-carboxamide], with at most 10 nM. `Cc1c(Nc2cc[nH]c(=O)c2C(=O)Nc2ccc(N3CCN(C(=O)C(C)C)[C@@H](C)C3)cc2)cnc2c1NCCO2` [Example 343, (S)-N-(4-(4-isobutyryl-3-methylpiperazin-1-yl)phenyl)-4-((8-methyl-2,3-dihydro-1H-pyrido[2,3-b][1,4]oxazin-7-yl)amino)-2-oxo-1,2-dihydropyridine-3-carboxamide]: the IC50 was at most 10 nM.

Regarding `COC(C)(C)C(=O)N1CCN(c2ccc(NC(=O)c3c(Nc4cnc5c(c4C)NCCO5)cc[nH]c3=O)cc2)CC1` [Example 344, N-(4-(4-(2-methoxy-2-methylpropanoyl)piperazin-1-yl)phenyl)-4-((8-methyl-2,3-dihydro-1H-pyrido[2,3-b][1,4]oxazin-7-yl)amino)-2-oxo-1,2-dihydropyridine-3-carboxamide], the IC50 was at most 10 nM. Next, `CCC(=O)N1CCN(c2ccc(NC(=O)c3c(Nc4cnc5c(c4C)NCCO5)cc[nH]c3=O)cc2)C[C@@H]1C` [Example 345, (S)-4-((8-methyl-2,3-dihydro-1H-pyrido[2,3-b][1,4]oxazin-7-yl)amino)-N-(4-(3-methyl-4-propionylpiperazin-1-yl)phenyl)-2-oxo-1,2-dihydropyridine-3-carboxamide]: at most 10 nM.

`COCCN1CCN(c2ccc(NC(=O)c3c(Nc4cnc5c(c4C)NCCO5)cc[nH]c3=O)cc2)C[C@@H]1C` [Example 346, (S)-N-(4-(4-(2-methoxyethyl)-3-methylpiperazin-1-yl)phenyl)-4-((8-methyl-2,3-dihydro-1H-pyrido[2,3-b][1,4]oxazin-7-yl)amino)-2-oxo-1,2-dihydropyridine-3-carboxamide]: the IC50 is at most 10 nM. With `CCC(=O)N1CCN(c2ccc(NC(=O)c3c(Nc4cnc5c(c4C)NCCO5)cc[nH]c3=O)cc2)C[C@H]1C` [Example 347, (R)-4-((8-methyl-2,3-dihydro-1H-pyrido[2,3-b][1,4]oxazin-7-yl)amino)-N-(4-(3-methyl-4-propionylpiperazin-1-yl)phenyl)-2-oxo-1,2-dihydropyridine-3-carboxamide], the IC50 is at most 10 nM.

As for `COCCN1CCN(c2ccc(NC(=O)c3c(Nc4cnc5c(c4C)NCCO5)cc[nH]c3=O)cc2)C[C@H]1C` [Example 348, (R)-N-(4-(4-(2-methoxyethyl)-3-methylpiperazin-1-yl)phenyl)-4-((8-methyl-2,3-dihydro-1H-pyrido[2,3-b][1,4]oxazin-7-yl)amino)-2-oxo-1,2-dihydropyridine-3-carboxamide], the IC50 was at most 10 nM. Regarding `Cc1c(Nc2cc[nH]c(=O)c2C(=O)Nc2ccc(N3CCN(C(=O)C(C)C)[C@H](C)C3)cc2)cnc2c1NCCO2` [Example 349, (R)-N-(4-(4-isobutyryl-3-methylpiperazin-1-yl)phenyl)-4-((8-methyl-2,3-dihydro-1H-pyrido[2,3-b][1,4]oxazin-7-yl)amino)-2-oxo-1,2-dihydropyridine-3-carboxamide], the concentration for half-maximal inhibition (IC50) is at most 10 nM.

In the case of `CO[C@@H](C)C(=O)N1CCN(c2ccc(NC(=O)c3c(Nc4cnc5c(c4C)NCCO5)cc[nH]c3=O)cc2)CC1` [Example 350, (S)-N-(4-(4-(2-methoxypropanoyl)piperazin-1-yl)phenyl)-4-((8-methyl-2,3-dihydro-1H-pyrido[2,3-b][1,4]oxazin-7-yl)amino)-2-oxo-1,2-dihydropyridine-3-carboxamide], the half-inhibitory concentration (IC50) is at most 10 nM.

For the molecule `COCC(C)N1CCN(c2ccc(NC(=O)c3c(Nc4cnc5c(c4C)NCCO5)cc[nH]c3=O)cc2)CC1` (stereo not drawn) [Example 351, N-(4-(4-(1-methoxypropan-2-yl)piperazin-1-yl)phenyl)-4-((8-methyl-2,3-dihydro-1H-pyrido[2,3-b][1,4]oxazin-7-yl)amino)-2-oxo-1,2-dihydropyridine-3-carboxamide], the IC50 lay in the range of 10 to 100 nM. Regarding `Cc1c(Nc2cc[nH]c(=O)c2C(=O)Nc2ccc(N3CCN(C#N)CC3)cc2)cnc2c1NCCO2` [Example 352, N-(4-(4-cyanopiperazin-1-yl)phenyl)-4-((8-methyl-2,3-dihydro-1H-pyrido[2,3-b][1,4]oxazin-7-yl)amino)-2-oxo-1,2-dihydropyridine-3-carboxamide], the IC50 fell in the range of 10 to 100 nM. In the case of `CO[C@H](C)C(=O)N1CCN(c2ccc(NC(=O)c3c(Nc4cnc5c(c4C)NCCO5)cc[nH]c3=O)cc2)CC1` [Example 353, (R)-N-(4-(4-(2-methoxypropanoyl)piperazin-1-yl)phenyl)-4-((8-methyl-2,3-dihydro-1H-pyrido[2,3-b][1,4]oxazin-7-yl)amino)-2-oxo-1,2-dihydropyridine-3-carboxamide], the half-maximal inhibitory concentration (IC50) lay within 10 to 100 nM. Turning to `CNC(C)C(=O)N1CCN(c2ccc(NC(=O)c3c(Nc4cnc5c(c4C)NCCO5)cc[nH]c3=O)cc2)CC1` (stereo not drawn) [Example 354, 4-((8-methyl-2,3-dihydro-1H-pyrido[2,3-b][1,4]oxazin-7-yl)amino)-N-(4-(4-(methylalanyl)piperazin-1-yl)phenyl)-2-oxo-1,2-dihydropyridine-3-carboxamide], the IC50 was in the range of 10 to 100 nM.

With `Cc1c(Nc2cc[nH]c(=O)c2C(=O)Nc2ccc(N3CCN(C(=O)C4(C)CC4)CC3)cc2)cnc2c1NCCO2` [Example 355, 4-((8-methyl-2,3-dihydro-1H-pyrido[2,3-b][1,4]oxazin-7-yl)amino)-N-(4-(4-(1-methylcyclopropane-1-carbonyl)piperazin-1-yl)phenyl)-2-oxo-1,2-dihydropyridine-3-carboxamide], the IC50 is at most 10 nM. Regarding `Cc1c(Nc2cc[nH]c(=O)c2C(=O)Nc2ccc(N3CCN(C(=O)C4CCN(C)C4)CC3)cc2)cnc2c1NCCO2` (stereo not drawn) [Example 356, 4-((8-methyl-2,3-dihydro-1H-pyrido[2,3-b][1,4]oxazin-7-yl)amino)-N-(4-(4-(1-methylpyrrolidine-3-carbonyl)piperazin-1-yl)phenyl)-2-oxo-1,2-dihydropyridine-3-carboxamide], the IC50 was in the range of 10 to 100 nM.
